Assay results reported in ChEMBL document CHEMBL1201862, “PubChem BioAssay data set” (2004).
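Interpolation was linear, between the two tested concentrations surrounding the appropriate level; five concentrations were tested over 48 hours in 96-well plates. Abbreviation: GI50, concentration required for 50% inhibition of growth.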 Calls of active or inactive are those of the source. Cut-off read from the data, not from the text of the source: active = GI50 up to about 1.1 µM and inactive = higher.

Tests used:
Test in all cases: inhibition of tumour cell growth, NCI panel, 48 h
[1] = tested on: MDA-MB-435
[2] = tested on: BT-549
[3] = tested on: NCI-H23
[4] = tested on: RPMI-8226
[5] = tested on: MCF7
[6] = tested on: Malme-3M
[7] = tested on: OVCAR-3
[8] = tested on: SF-295
[9] = tested on: PC-3
[10] = tested on: TK-10
[11] = tested on: NCI-H522
[12] = tested on: A549
[13] = tested on: KM12
[14] = tested on: LOX IMVI
[15] = tested on: SK-MEL-5
[16] = tested on: UACC-257
[17] = tested on: HOP-62
[18] = tested on: ACHN
[19] = tested on: NCI-H460
[20] = tested on: EKVX
[21] = tested on: SF-539
[22] = tested on: CAKI-1
[23] = tested on: T47D
[24] = tested on: SK-MEL-2
[25] = tested on: OVCAR-5
[26] = tested on: U-251
[27] = tested on: Hs-578T
[28] = tested on: OVCAR-8
[29] = tested on: 786-0
[30] = tested on: SW-620
[31] = tested on: HOP-92
[32] = tested on: DU-145
[33] = tested on: UACC-62
[34] = tested on: COLO 205
[35] = tested on: HCC 2998
[36] = tested on: MDA-MB-231
[37] = tested on: NCI-H226
[38] = tested on: MDA-N
[39] = tested on: SF-268
[40] = tested on: CCRF-CEM
[41] = tested on: MOLT-4
[42] = tested on: HCT-116
[43] = tested on: SNB-19
[44] = tested on: A498
[45] = tested on: HCT-15
[46] = tested on: IGROV-1
[47] = tested on: K562
[48] = tested on: HL-60
[49] = tested on: UO-31
[50] = tested on: NCI/ADR-RES
[51] = tested on: M14
[52] = tested on: SK-MEL-28
[53] = tested on: RXF 393
[54] = tested on: SNB-75
[55] = tested on: OVCAR-4
[56] = tested on: HT-29
[57] = tested on: SK-OV-3
[58] = tested on: SN12C

## CCOc1cc2c(cc1O)C(=O)C[C@@H]1[C@@H]2CC[C@]2(C)[C@@H](O)CC[C@@H]12
[1]
  GI50: 19.7 nM (active)
[2]
  GI50: 150 nM (active)
[3]
  GI50: 330 nM (active)
[4]
  GI50: 154 nM (active)
[5]
  GI50: 132 nM (active)
[6]
  GI50: 294 nM (active)
[7]
  GI50: 92 nM (active)
[8]
  GI50: 158 nM (active)
[9]
  GI50: 2710 nM (inactive)
[10]
  GI50: > 13400 nM (inactive)
[11]
  GI50: 50.8 nM (active)
[12]
  GI50: 877 nM (active)
[13]
  GI50: 2690 nM (inactive)
[14]
  GI50: 189 nM (active)
[15]
  GI50: 63.4 nM (active)
[16]
  GI50: 1210 nM (inactive)
[17]
  GI50: 213 nM (active)
[18]
  GI50: 168 nM (active)
[19]
  GI50: 98.2 nM (active)
[20]
  GI50: 10100 nM (inactive)
[21]
  GI50: 155 nM (active)
[22]
  GI50: 164 nM (active)
[23]
  GI50: 130 nM (active)
[24]
  GI50: 4850 nM (inactive)
[25]
  GI50: 20600 nM (inactive)
[26]
  GI50: 173 nM (active)
[27]
  GI50: 163 nM (active)
[28]
  GI50: 321 nM (active)
[29]
  GI50: 177 nM (active)
[30]
  GI50: 126 nM (active)
[31]
  GI50: 9060 nM (inactive)
[32]
  GI50: 337 nM (active)
[33]
  GI50: 68.2 nM (active)
[34]
  GI50: 20500 nM (inactive)
[35]
  GI50: 1360 nM (inactive)
[36]
  GI50: 525 nM (active)
[37]
  GI50: 561 nM (active)
[38]
  GI50: 21.2 nM (active)
[39]
  GI50: 308 nM (active)
[40]
  GI50: 162 nM (active)
[41]
  GI50: 172 nM (active)
[42]
  GI50: 144 nM (active)
[43]
  GI50: 189 nM (active)
[44]
  GI50: 269 nM (active)
[45]
  GI50: 55.6 nM
[46]
  GI50: 861 nM (active)
[47]
  GI50: 36.2 nM (active)
[48]
  GI50: 185 nM (active)
[49]
  GI50: 482 nM (active)
[50]
  GI50: 95.5 nM (active)
[51]
  GI50: 385 nM (active)
[52]
  GI50: 190 nM (active)
[53]
  GI50: 1590 nM (inactive)
[54]
  GI50: 106 nM (active)
[55]
  GI50: 35100 nM (inactive)
[56]
  GI50: 6870 nM (inactive)
[57]
  GI50: 463 nM (active)
[58]
  GI50: 353 nM (active)
